# Measured values taken from ChEMBL document CHEMBL5034039, “Discovery of Novel, Orally Bioavailable Pyrimidine Ether-Based Inhibitors of ELOVL1” (J Med Chem, 2021).
# Active and inactive are the calls of the source. No cut-off for these calls is given here.
# Experiments:
# [1] = biological target: T1, Very long chain fatty acid elongase 1 (Homo sapiens) (UniProt Q9BW60); assay: Inhibition of ELOVL1 in HEK293 cells assessed as increase in C20:0 lipo phosphatidyl choline synthesis at 100 nM in presence of 13C-labeled acetate measured after 48 hrs by mass spectroscopic analysis; assay type: cell-based
# T1 sequence (whole entry): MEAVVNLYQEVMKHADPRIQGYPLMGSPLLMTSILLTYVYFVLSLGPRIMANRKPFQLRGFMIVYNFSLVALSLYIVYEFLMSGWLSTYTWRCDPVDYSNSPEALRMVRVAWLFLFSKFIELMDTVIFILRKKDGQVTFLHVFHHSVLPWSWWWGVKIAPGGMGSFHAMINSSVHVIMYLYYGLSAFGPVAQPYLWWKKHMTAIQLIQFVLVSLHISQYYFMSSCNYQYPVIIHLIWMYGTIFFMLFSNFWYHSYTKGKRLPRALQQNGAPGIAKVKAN
# [2] = Intrinsic clearance in rat hepatocytes assessed per million cells; assay type: ADME, cell-based, Hepatocyte; conditions: read-out: CLH
# [3] = Reduction in C26:0/C16:0 LPC level in ABCD1 knock out mouse blood at >=8 mg/kg, po qd and measured after 1 week relative to control; assay type: functional; set-up: scale not given: the % may be the effect or the level left; conditions: dose mg/kg >=8; time 1 weeks
# [4] = biological target: T2, Very long chain fatty acid elongase 6 (Homo sapiens, UniProt Q9H5J4); assay: Inhibition of ELOVL6 in HEK293 cells by radiometric enzyme assay; assay type: cell-based
# T2 sequence (Q9H5J4 whole entry): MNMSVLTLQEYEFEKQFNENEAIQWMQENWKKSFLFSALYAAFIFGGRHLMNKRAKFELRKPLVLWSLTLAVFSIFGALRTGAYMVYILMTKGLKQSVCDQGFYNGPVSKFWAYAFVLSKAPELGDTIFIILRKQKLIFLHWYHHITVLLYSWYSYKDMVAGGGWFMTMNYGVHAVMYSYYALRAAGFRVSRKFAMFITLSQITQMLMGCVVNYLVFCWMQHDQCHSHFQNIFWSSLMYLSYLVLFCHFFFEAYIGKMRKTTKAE
# [5] = Half life in rat at 1 mg/kg, iv; assay type: ADME, organism-based; conditions: in vivo
# [6] = biological target: T3, Very long chain fatty acid elongase 6 (Homo sapiens) (UniProt Q9H5J4); assay: Inhibition of ELOVL6 in HEK293 cells assessed as reduction of C18:0 lipo phosphatidyl choline synthesis at 100 nM in presence of 13C-labeled acetate measured after 48 hrs by mass spectroscopic analysis; assay type: cell-based
# T3 sequence (whole entry): T2 sequence (Q9H5J4 whole entry)
# [7] = biological target: T1, Very long chain fatty acid elongase 1 (Homo sapiens); assay: Inhibition of ELOVL1 in HEK293 cells assessed as reduction of C24:0 lipo phosphatidyl choline synthesis at 100 nM in presence of 13C-labeled acetate measured after 48 hrs by mass spectroscopic analysis; assay type: cell-based
# [8] = Reduction in C26:0/C16:0 LPC level in wild type Sprague-Dawley rat blood at 10 mg/kg, po qd measured after 28 days relative to control; assay type: functional; set-up: scale not given: the % may be the effect or the level left; conditions: time 28 day
# [9] = Oral bioavailability in rat at 3 mg/kg; assay type: ADME, organism-based; conditions: in vivo
# Cynomolgus monkey [10] = assay: Reduction in C26:0/C16:0 LPC level in wild type Cynomolgus monkey blood at 50 mg/kg, po qd measured after 14 days relative to control; assay type: functional, Macaca fascicularis; set-up: scale not given: the % may be the effect or the level left; conditions: time 14 day
# [11] = biological target: T3, Very long chain fatty acid elongase 6 (Homo sapiens); assay: Inhibition of ELOVL6 in HEK293 cells assessed as reduction of C16:0 lipo phosphatidyl choline synthesis at 100 nM in presence of 13C-labeled acetate measured after 48 hrs by mass spectroscopic analysis; assay type: cell-based
# Mus musculus [12] = assay: Reduction in C26:0/C16:0 LPC level in ABCD1 knock out mouse blood at 1 to 32 mg/kg, po qd and measured after 1 week; assay type: functional, organism-based; conditions: dose 1-32 mg/kg, time 1.0 weeks
# [13] = biological target: T4, Very long chain fatty acid elongase 1 (Homo sapiens, UniProt Q9BW60); assay: Inhibition of ELOVL1 in HEK293 cells assessed as reduction of C26:0 lipo phosphatidyl choline synthesis; assay type: cell-based
# T4 sequence (Q9BW60 whole entry): T1 sequence (whole entry)
# [14] = biological target: T1, Very long chain fatty acid elongase 1 (Homo sapiens); assay: Inhibition of ELOVL1 in HEK293 cells assessed as reduction of C26:0 lipo phosphatidyl choline synthesis at 100 nM in presence of 13C-labeled acetate measured after 48 hrs by mass spectroscopic analysis; assay type: cell-based
# Cynomolgus monkey [15] = assay: Reduction in C26:0/C16:0 LPC level in wild type Cynomolgus monkey blood at 6.5 mg/kg, po qd measured after 14 days relative to control; assay type: functional, Macaca fascicularis; set-up: scale not given: the % may be the effect or the level left; conditions: time 14 day
# [16] = Inhibition of ELOVL7 in HEK293 cells by radiometric enzyme assay; assay type: cell-based, Homo sapiens
# HEK293 = assay: Cytotoxicity against HEK293 cells assessed as reduction in cell viability at 100 nM measured after 48 hrs; assay type: cell-based; conditions: human, hek293, 48 h, 0.1 µM
# MDR1 = assay: Efflux ratio of permeability in dog MDCK-MDR1 cells; assay type: ADME, cell-based, Canis lupus familiaris
# [17] = Reduction in C26:0/C16:0 LPC level in ABCD1 knock out mouse CNS at 32 mg/kg, po qd and measured after 3 months relative to control; assay type: functional; set-up: scale not given: the % may be the effect or the level left; conditions: 2190 h
# [18] = Reduction in C26:0/C16:0 LPC level in wild type Sprague-Dawley rat blood at 50 mg/kg, po qd measured after 28 days relative to control; assay type: functional; set-up: scale not given: the % may be the effect or the level left; conditions: time 28 day
# [19] = Reduction in C26:0 LPC level in wild type mouse blood at 4 mg/kg, po qd and measured after 1 week relative to control; assay type: functional; set-up: scale not given: the % may be the effect or the level left; conditions: time 1 weeks
# [20] = Lipophilicity, logD of the compound at pH 7.4; assay type: physicochemical; conditions: buffer
# [21] = biological target: Kappa-type opioid receptor (Homo sapiens) (UniProt P41145); assay: Inhibition of human kappa opioid receptor at 10 uM relative to control
# Mus musculus [22] = assay: Reduction in C26:0/C16:0 LPC level in ABCD1 knock out mouse CNS at 4 to 32 mg/kg, po qd and measured after 1 month; assay type: functional, organism-based; conditions: dose 4-32 mg/kg, time 1.0 months
# [23] = Reduction in C26:0 LPC level in wild type mouse blood at 16 mg/kg, po qd and measured after 1 week relative to control; assay type: functional; set-up: scale not given: the % may be the effect or the level left; conditions: time 1 weeks
# [24] = Toxicity in Cynomolgus monkey assessed as convulsion at >50 mg/kg/day, po qd measured after 14 days; assay type: organism-based, Macaca fascicularis; conditions: in vivo, 336 h, time 14 day
# [25] = Permeability of compound across apical to basolateral side in MDCK-MDR1 cells; assay type: ADME, cell-based, Canis lupus familiaris; conditions: dog, read-out: permeability
# [26] = Clearance in rat at 1 mg/kg, iv; assay type: ADME, organism-based; conditions: in vivo
# [27] = Reduction in C26:0 LPC level in wild type mouse blood at 32 mg/kg, po qd and measured after 1 week relative to control; assay type: functional; set-up: scale not given: the % may be the effect or the level left; conditions: time 1 weeks
# [28] = Ocular toxicity in rat assessed as corneal opacities at 10 to 50 mg/kg/day, po qd measured after 8 weeks by macroscopic analysis; assay type: organism-based; conditions: in vivo, 1344 h, dose 10-50 mg/kg/day
# [29] = Inhibition of ELOVL4 in HEK293 cells by radiometric enzyme assay; assay type: cell-based, Homo sapiens
# [30] = biological target: 3',5'-cyclic phosphodiesterase (Homo sapiens) (UniProt O76074+P27815+Q14432+Q13956+P18545+O00408+Q13946+P54750+O76083+P35913+Q08499+Q07343+O43924+P16499+Q13370+P51160+O95263+Q9Y233+Q01064+Q08493+Q14123+O60658+Q9NP56); assay: Inhibition of human PDE4 at 10 uM relative to control; assay type: protein assay
# [31] = biological target: Voltage-gated inwardly rectifying potassium channel KCNH2 (Homo sapiens, UniProt Q12809); assay: Inhibition of human ERG
# Sequence of Voltage-gated inwardly rectifying potassium channel KCNH2 (Q12809 whole entry): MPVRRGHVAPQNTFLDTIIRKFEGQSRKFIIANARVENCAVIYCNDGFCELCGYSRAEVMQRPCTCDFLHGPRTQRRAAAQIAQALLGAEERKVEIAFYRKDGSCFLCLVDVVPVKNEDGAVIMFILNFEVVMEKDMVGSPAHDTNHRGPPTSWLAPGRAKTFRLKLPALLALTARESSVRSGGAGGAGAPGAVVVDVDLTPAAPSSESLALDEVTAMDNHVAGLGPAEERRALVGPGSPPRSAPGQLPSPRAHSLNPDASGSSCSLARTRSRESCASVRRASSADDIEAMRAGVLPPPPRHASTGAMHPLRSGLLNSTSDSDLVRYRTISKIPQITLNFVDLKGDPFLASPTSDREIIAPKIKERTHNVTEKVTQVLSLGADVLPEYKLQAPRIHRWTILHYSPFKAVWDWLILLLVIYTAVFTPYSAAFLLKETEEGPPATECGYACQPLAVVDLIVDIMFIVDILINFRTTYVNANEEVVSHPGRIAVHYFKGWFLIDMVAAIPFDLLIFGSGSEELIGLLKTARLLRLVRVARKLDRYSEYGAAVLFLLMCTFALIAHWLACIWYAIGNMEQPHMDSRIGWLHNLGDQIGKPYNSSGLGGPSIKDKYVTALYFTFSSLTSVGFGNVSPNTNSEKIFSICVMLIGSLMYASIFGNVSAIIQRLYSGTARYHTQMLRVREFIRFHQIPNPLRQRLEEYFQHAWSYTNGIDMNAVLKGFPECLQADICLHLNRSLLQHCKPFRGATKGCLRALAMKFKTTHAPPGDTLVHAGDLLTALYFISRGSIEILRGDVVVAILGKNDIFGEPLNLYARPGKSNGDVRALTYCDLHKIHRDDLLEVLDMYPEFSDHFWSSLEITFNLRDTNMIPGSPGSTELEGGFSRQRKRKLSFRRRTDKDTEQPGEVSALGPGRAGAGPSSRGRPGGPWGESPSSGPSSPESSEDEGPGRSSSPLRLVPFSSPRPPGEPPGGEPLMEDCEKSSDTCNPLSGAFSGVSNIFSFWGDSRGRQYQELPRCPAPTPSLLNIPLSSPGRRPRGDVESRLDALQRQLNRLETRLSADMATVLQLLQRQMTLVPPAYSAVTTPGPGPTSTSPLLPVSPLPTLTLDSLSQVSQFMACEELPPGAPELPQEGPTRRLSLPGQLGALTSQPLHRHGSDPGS
# Sequence of Kappa-type opioid receptor (Homo sapiens) (P41145 whole entry): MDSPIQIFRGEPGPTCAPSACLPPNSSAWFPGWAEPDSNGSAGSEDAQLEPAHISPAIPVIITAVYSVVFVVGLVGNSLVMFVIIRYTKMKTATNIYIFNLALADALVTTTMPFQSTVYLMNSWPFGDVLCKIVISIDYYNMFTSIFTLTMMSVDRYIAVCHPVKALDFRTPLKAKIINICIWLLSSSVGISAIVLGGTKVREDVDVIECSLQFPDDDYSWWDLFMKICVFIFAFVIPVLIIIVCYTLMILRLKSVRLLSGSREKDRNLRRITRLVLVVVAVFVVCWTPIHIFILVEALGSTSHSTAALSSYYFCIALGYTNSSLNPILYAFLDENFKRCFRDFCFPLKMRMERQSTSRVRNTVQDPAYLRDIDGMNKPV
compound,measurement,setting,value
c1ccc([C@H]2CN(c3cc(O[C@H]4C[C@@H](n5cccn5)C4)ncn3)CCO2)cc1,inhibition,[1],Active
same,hepatocyte CLint,[2],20 µL/min/1e6 cells
same,Activity,[3],72%
same,IC50,[4],> 50 µM
same,half-life,[5],3.1 h
same,inhibition,[6],inactive
same,inhibition,[7],Active
same,Activity,[8],78%
same,bioavailability,[9],45%
same,Activity,Cynomolgus monkey [10],65%
same,inhibition,[11],inactive
same,Activity,Mus musculus [12],Active
same,IC50,[13],0.0004 µM
same,inhibition,[14],Active
same,Activity,Cynomolgus monkey [15],47%
same,IC50,[16],> 50 µM
same,Activity,HEK293,Non-Toxic
same,efflux ratio,MDR1,1
same,Activity,[17],27%
same,Activity,[18],79%
same,Activity,[19],45%
same,logD,[20],3.3
same,inhibition,[21],54%
same,Activity,Mus musculus [22],inactive
same,Activity,[23],70%
same,Activity,[24],Toxic
same,Papp A→B,[25],17.4 ×10⁻⁶ cm/s
same,clearance,[26],20 mL/min/kg
same,Activity,[27],70%
same,Activity,[28],Toxic
same,IC50,[29],> 50 µM
same,inhibition,[30],74%
same,IC50,[31],> 30 µM
